# Results as given in PMC5663397, “A composite docking approach for the identification and characterization of ectosteric inhibitors of cathepsin K” (PLoS ONE, 2017).
# “And” between values parts separate entries of the source, which are not always exact repeats. Equal entries are not always repeated. “Also recorded” adds a separate entry of the source. Where two headings read alike, the source gives them in different places.
# How the values were obtained:
# CatK [1] = biological target: T1, CatK (Homo sapiens, UniProt P43235); test: Z-Phe-Arg-MCA cleavage assay with CatK; type: biochemical; settings: 100 μM inhibitor, 5 nM CatK, 5 μM substrate, pH 5.5
# T1 construct: made in house; host or cells: Pichia pastoris
# T1 sequence (P43235 115-329): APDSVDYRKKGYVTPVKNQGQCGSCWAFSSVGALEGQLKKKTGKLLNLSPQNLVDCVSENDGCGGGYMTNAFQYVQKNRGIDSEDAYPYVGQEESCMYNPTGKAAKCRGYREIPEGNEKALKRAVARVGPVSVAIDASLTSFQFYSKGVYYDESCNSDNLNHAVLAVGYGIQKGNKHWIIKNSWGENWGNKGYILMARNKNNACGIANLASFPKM
# Method: The enzymatic activity of CatK was monitored by measuring the rate of release of the fluorogenic group, amino-methyl coumarin at an excitation wavelength of 380 nm and an emission wavelength of 450 nm using a Molecular Devices SpectraMax Gemini spectrofluorometer. Inhibitors were added prior to measurement of enzyme activity. The assays were performed at 25°C at a fixed enzyme concentrations (5 nM) and substrate concentration (5 μM) in 100 mM sodium acetate buffer, pH 5.5, containing 2.5 mM DTT and 2.5 mM EDTA. Z-Phe-Arg-MCA hydrolysis with trypsin was carried out in 50 mM Tris-HCl, pH 8.8 at 10 nM enzyme concentration.
# CatK [2] = biological target: T1, CatK; test: CatK collagenase assay (type I collagen degradation, SDS-PAGE); type: biochemical
# Method: The collagenase inhibitory activities of all identified compounds were measured using a collagen degradation assay. Soluble bovine type I collagen (0.6 mg/mL) was incubated with 400 nM recombinant human CatK, in the presence or absence of 200 nM chondroitin 4-sulfate (C4-S) in 100 mM sodium acetate buffer, pH 5.5, containing 2.5 mM dithiothreitol (DTT) (Sigma-Aldrich Canada, Oakville, Ontario, Canada) and 2.5 mM ethylenediametetraacetate (EDTA) (Sigma-Aldrich). In the experiments involving detergent to minimize inhibitor aggregation, 0.001% or 0.005% Triton X-100 was added to the buffer with the inhibitor. The recombinant human CatK was expressed in Pichia pastoris and purified as previously described. Selected compounds identified by molecular docking were ordered from the National Cancer Institute through the Developmental Therapeutics Program (Rockville, MD). All compounds were dissolved in DMSO as a 20 or […] stock. […] After incubation at 28°C for 4 hours, 1 μM of E-64 was added to block the residual activity of CatK.
# (§1) Digestion with MMP-1 was performed in 50 mM Tris-HCl, pH 7.4, containing 200 mM NaCl and 5 mM CaCl2 at 28°C for 4 h. Reactions were stopped by adding 25 mM EDTA as previously described. Samples were analyzed using 10% SDS-PAGE gels and stained with Coomassie. The resulting bands of α-collagen chains were quantitatively assessed using ImageJ (Version 1.5) and IC50 graphs were plotted using GraphPad Prism (GraphPad Software, Version 5.0, La Jolla California USA).
# quinone oxidoreductase = system: quinone oxidoreductase; design: method as in PMID 21859103; settings: cited from earlier work
# human osteoclasts [3] = test: Human osteoclast bone resorption assay on bone slices; type: cell-based; settings: 1 μM inhibitor, 72 h, versus untreated
# Method: (§2) Osteoclasts were generated from mononuclear cells isolated from human bone marrow tissue (Lonza, Walkersville, MD). The bone marrow cells were centrifuged at 400 g for 5 min and the pellet was re-suspended in 10 mL α-MEM (α-Minimal Essential Media) and layered on 10 ml Ficoll-Plaque media solution. After centrifugation at 500 g for 30 min, the white interface containing the monocytes was harvested and washed twice with α-MEM. Cells were cultured in α-MEM containing 10% FBS and 25 ng/mL M-CSF for 24 hours and then cultured in 25 ng/mL RANKL and 25 ng/mL M-CSF for 7 days. Differentiated osteoclasts (100,000 cells per slice) were then seeded on each bone slice (5.5 mm diameter and 0.4 mm thickness; self-made) in the presence or absence of inhibitors and incubated for 72 hours at 5% CO2 and 37°C with the DMSO concentration at 0.1%. The inhibitor concentration range tested varied between 50 nM to 3 μM.
# (§3) To compare the effects of the compounds on cell survival, the metabolic activity of osteoclasts was determined using the CellTiter-Blue Viability Assay (Promega, Madison, WI, USA). Bone slices from each condition (inhibitor-treated and control groups) were fixed in 4% formaldehyde and subsequently stained for tartrate-resistant acid phosphatase (TRAcP) activity (Acid Phosphatase, Leukocyte (TRAP) Kit; Sigma-Aldrich). Aliquots from cell culture media were used to determine the CTx-I concentration (MyBiosource ELISA kit, San Diego, CA). CTx-I is a CatK-specific C-terminal cleavage product of triple helical type I collagen. The total number of osteoclasts per bone slice was determined after TRAcP staining. Cells with ≥2 nuclei were counted as osteoclasts. After 72 h, bone slices from each condition were incubated in filtered water for cell lysis and cells were removed using a cotton stick. Subsequently the resorption cavities were stained with toluidine blue and observed by light microscopy. The number of resorption events and eroded bone surface area were determined as previously described. All light microscopic analyses were performed using a Nikon Eclipse LV100 microscope and a Nikon Eclipse Ci microscope.
# MMP-1 [4] = biological target: T2, MMP-1 (Homo sapiens, UniProt P03956); test: Gelatin degradation assay with MMP-1; type: biochemical; settings: 50 μM inhibitor, 10 nM MMP-1
# T2 sequence (P03956 100-469): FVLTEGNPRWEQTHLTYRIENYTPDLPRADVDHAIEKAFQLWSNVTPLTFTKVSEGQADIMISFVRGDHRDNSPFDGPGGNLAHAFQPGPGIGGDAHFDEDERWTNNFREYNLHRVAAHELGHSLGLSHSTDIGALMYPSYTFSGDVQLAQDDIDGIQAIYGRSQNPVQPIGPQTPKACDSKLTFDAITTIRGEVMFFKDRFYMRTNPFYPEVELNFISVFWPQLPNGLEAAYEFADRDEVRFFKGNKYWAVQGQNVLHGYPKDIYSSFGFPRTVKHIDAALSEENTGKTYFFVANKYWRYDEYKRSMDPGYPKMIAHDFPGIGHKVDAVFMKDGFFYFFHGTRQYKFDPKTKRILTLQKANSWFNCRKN
# Method: Gelatin (0.6 mg/mL) degradation assays were performed in the same manner as the collagen degradation experiments with 10 nM enzyme and were incubated at 37°C for one hour at the appropriate pH values for the individual proteases (CatK, pH 5.5; MMP-1, pH 7.4; trypsin, pH 8.8).
# MMP-1 [5] = biological target: T2, MMP-1; test: Collagen digestion with MMP-1; type: biochemical; settings: 50 μM inhibitor, 400 nM MMP-1
# Method: as §1
# human osteoclasts [6] = test: Osteoclast survival: CellTiter-Blue metabolic activity and osteoclast count after TRAcP staining; type: cell-based; settings: compared with untreated cells
# Method: as §2, §3
smiles,measurement,setting,value
"CN(C)CCCNc1ccc2ncn3c4ccccc4c(=O)c1c23 [compound 3, 5-(3-(dimethylamino)propylamino)-6H-imidazo[4,5,1-de]acridin-6-one]",inhibition at 100 µM,CatK [1],5 ± 2.7%
same,IC50,"CatK [2]; 400 nM CatK, soluble bovine type I collagen 0.6 mg/mL, pH 5.5, 28°C, 4 h, read-out: Collagenase IC50",< 20 µM and 4.9 µM and ~5 µM
same,IC50,"CatK [2]; Collagenase IC50 with 0.005% Triton X-100, in the presence of detergent, 0.005% Triton X-100",5.2 ± 1.5 µM
same,Collagenase IC50 with 0.005% Triton X-100,"CatK [2]; in the presence of detergent, 0.005% Triton X-100",not significantly different
same,activity in an inhibitor screen of a quinone oxidoreductase,quinone oxidoreductase,active
same,Number of trenches,human osteoclasts [3],significant reduction; also recorded: significantly reduced
same,percentage of eroded surface area / total eroded surface,human osteoclasts [3],significant reduction; also recorded: significantly reduced
same,inhibitory activity for the gelatinase activity of MMP-1,MMP-1 [4],no inhibitory activity; also recorded: did not show inhibition
same,inhibitory activity towards the collagenase activity of MMP-1,MMP-1 [5],no inhibitory activity; also recorded: did not show inhibition
same,Metabolic activity of osteoclasts,human osteoclasts [6]; CellTiter-Blue,no significant differences
same,number of osteoclasts,human osteoclasts [6]; TRAcP staining,no significant differences
